The values that follow come from patent publication US10829501B2 (BRISTOL-MYERS SQUIBB COMPANY, priority 2016, dated 2020).

For the assay, the target named is ROCK2 (Homo sapiens, UniProt O75116). In words: ROCK2 kinase inhibition assay (LABCHIP 3000 Reader, FITC peptide substrate).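 Note: rho kinase reaction read by separating phosphorylated from unphosphorylated peptide on chip, with inhibition of kinase activity computed per concentration across a dose-response series.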
Setting [1] is: read-out: ROCK2 Activity (ROCK2 IC50), 5 μM ATP, 1.5 μM peptide substrate, pH 7.5.

Structures can show the parent of a compound that is named as a salt. Where two headings read alike, the source gives them in different places.

Chain of ROCK2 (O75116 whole entry, species assumed): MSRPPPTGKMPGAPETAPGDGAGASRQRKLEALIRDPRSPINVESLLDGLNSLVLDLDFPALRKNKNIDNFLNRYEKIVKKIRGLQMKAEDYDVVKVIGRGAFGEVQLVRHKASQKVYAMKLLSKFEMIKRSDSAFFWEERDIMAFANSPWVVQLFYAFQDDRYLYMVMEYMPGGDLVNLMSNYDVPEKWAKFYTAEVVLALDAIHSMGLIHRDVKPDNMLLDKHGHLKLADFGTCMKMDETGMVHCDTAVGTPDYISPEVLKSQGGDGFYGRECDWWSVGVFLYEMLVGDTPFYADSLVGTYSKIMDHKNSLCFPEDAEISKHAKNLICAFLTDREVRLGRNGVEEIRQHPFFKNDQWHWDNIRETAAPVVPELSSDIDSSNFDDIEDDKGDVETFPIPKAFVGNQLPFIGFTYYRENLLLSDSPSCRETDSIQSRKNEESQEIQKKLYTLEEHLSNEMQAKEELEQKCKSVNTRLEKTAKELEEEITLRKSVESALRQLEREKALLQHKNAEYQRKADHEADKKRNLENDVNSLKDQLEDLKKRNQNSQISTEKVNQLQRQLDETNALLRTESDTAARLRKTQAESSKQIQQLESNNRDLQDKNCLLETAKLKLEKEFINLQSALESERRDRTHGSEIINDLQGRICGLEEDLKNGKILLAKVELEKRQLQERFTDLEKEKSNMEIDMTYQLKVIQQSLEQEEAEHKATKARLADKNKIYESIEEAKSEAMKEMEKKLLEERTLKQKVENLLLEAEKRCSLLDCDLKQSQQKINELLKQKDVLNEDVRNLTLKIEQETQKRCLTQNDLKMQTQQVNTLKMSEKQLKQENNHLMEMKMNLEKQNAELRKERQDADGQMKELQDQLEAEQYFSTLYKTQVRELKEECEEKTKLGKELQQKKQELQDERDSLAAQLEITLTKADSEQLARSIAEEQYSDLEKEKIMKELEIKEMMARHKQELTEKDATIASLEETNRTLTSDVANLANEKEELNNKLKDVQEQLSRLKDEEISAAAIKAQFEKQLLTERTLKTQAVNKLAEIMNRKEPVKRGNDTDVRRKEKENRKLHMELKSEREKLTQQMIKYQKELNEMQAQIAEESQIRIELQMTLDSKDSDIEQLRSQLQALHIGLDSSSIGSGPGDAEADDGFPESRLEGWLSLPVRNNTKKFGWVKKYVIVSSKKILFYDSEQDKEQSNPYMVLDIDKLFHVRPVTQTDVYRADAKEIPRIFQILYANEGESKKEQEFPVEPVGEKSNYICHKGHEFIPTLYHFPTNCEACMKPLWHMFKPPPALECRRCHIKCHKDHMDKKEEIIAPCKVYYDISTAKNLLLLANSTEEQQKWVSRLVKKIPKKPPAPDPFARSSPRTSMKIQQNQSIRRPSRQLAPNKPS

As for `CC(C)(C(N)=O)n1nc(C(=O)NC2CC3(C2)CC(Oc2ncccc2C(N)=O)C3)c2ccc(F)cc21` [Example 402, 1-(1-amino-2-methyl-1-oxopropan-2-yl)-N-((aR)-6-((3-carbamoylpyridin-2-yl)oxy)spiro[3.3]heptan-2-yl)-6-fluoro-1H-indazole-3-carboxamide, TFA], under setting [1], the IC50 was in the range of 5 to 50 nM. Still for that read-out and setting: for `CC(C)(C#N)n1nc(C(=O)NC2CC3(C2)CC(Oc2ncccc2C(N)=O)C3)c2ccc(Br)cc21` [Example 403, 6-bromo-N-((aR)-6-((3-carbamoylpyridin-2-yl)oxy)spiro[3.3]heptan-2-yl)-1-(2-cyanopropan-2-yl)-1H-indazole-3-carboxamide, TFA] the value was 5 to 50 nM; for `Cn1cc(-c2ccc3c(C(=O)NC4CC5(C4)CC(Oc4ncccc4C(N)=O)C5)nn(CC4(O)CC(F)(F)C4)c3c2)cn1` [Example 404, N-((aR)-6-((3-carbamoylpyridin-2-yl)oxy)spiro[3.3]heptan-2-yl)-1-((3,3-difluoro-1-hydroxycyclobutyl)methyl)-6-(1-methyl-1H-pyrazol-4-yl)-1H-indazole-3-carboxamide, TFA], 5 to 50 nM. The same measure, in the same setting: with `Cn1cc(-c2ccc3c(C(=O)NC4CC5(C4)CC(Oc4ncccc4C(N)=O)C5)nn(CC4(O)CCC4)c3c2)cn1` [Example 405, N-((aR)-6-((3-carbamoylpyridin-2-yl)oxy)spiro[3.3]heptan-2-yl)-1-((1-hydroxycyclobutyl)methyl)-6-(1-methyl-1H-pyrazol-4-yl)-1H-indazole-3-carboxamide, TFA] the figure was below 5 nM. The compound `[H][C@]1(Oc2ncccc2C(N)=O)C[C@@]2(C[C@H](NC(=O)c3nn(C(C)(C)C#N)c4cc(-c5cnn(C)c5)ccc34)C2)C1` (stereo partly drawn) [Example 406, N-((aR)-6-((3-carbamoylpyridin-2-yl)oxy)spiro[3.3]heptan-2-yl)-1-(2-cyanopropan-2-yl)-6-(1-methyl-1H-pyrazol-4-yl)-1H-indazole-3-carboxamide, TFA] returned an IC50 below 5 nM. Same read-out and setting: for `[H][C@]1(Oc2ncccc2C(N)=O)C[C@@]2(C[C@H](NC(=O)c3nn(C(C)(C)C#N)c4cc(-c5cnn(C(F)F)c5)ccc34)C2)C1` (stereo partly drawn) [Example 407, N-((aR)-6-((3-carbamoylpyridin-2-yl)oxy)spiro[3.3]heptan-2-yl)-1-(2-cyanopropan-2-yl)-6-(1-(difluoromethyl)-1H-pyrazol-4-yl)-1H-indazole-3-carboxamide, TFA] the value was below 5 nM; for `[H][C@]1(Oc2ncccc2C(N)=O)C[C@@]2(C[C@H](NC(=O)c3nn(C(C)(C)C(N)=O)c4cc(-c5cnn(C)c5)ccc34)C2)C1` (stereo partly drawn) [Example 408, 1-(1-amino-2-methyl-1-oxopropan-2-yl)-N-((aR)-6-((3-carbamoylpyridin-2-yl)oxy)spiro[3.3]heptan-2-yl)-6-(1-methyl-1H-pyrazol-4-yl)-1H-indazole-3-carboxamide, TFA], 5 to 50 nM.

In turn, `CC(C)(C(N)=O)n1nc(C(=O)N[C@H]2CC3(C2)C[C@H](Oc2ncccc2C(N)=O)C3)c2ccc(-c3cnn(C(F)F)c3)cc21` (stereo partly drawn) [Example 409, 1-(1-amino-2-methyl-1-oxopropan-2-yl)-N-((aR)-6-((3-carbamoylpyridin-2-yl)oxy)spiro[3.3]heptan-2-yl)-6-(1-(difluoromethyl)-1H-pyrazol-4-yl)-1H-indazole-3-carboxamide, TFA] came in with a concentration for half-maximal inhibition (IC50) below 5 nM. On the same count and under the same terms, with `[H][C@]1(Oc2ncccc2C(N)=O)C[C@@]2(C[C@H](NC(=O)c3nn(C(C)(C)C(N)=O)c4cc(OCCC(F)(F)F)ccc34)C2)C1` (stereo partly drawn) [Example 410, 1-(1-amino-2-methyl-1-oxopropan-2-yl)-N-((aR)-6-((3-carbamoylpyridin-2-yl)oxy)spiro[3.3]heptan-2-yl)-6-(3,3,3-trifluoropropoxy)-1H-indazole-3-carboxamide, TFA] the figure was 5 to 50 nM; with `[H][C@]1(Oc2ncccc2C(N)=O)C[C@@]2(C[C@H](NC(=O)c3nn(C(C)(C)C#N)c4cc(OCCC(F)(F)F)ccc34)C2)C1` (stereo partly drawn) [Example 411, N-((aR)-6-((3-carbamoylpyridin-2-yl)oxy)spiro[3.3]heptan-2-yl)-1-(2-cyanopropan-2-yl)-6-(3,3,3-trifluoropropoxy)-1H-indazole-3-carboxamide, TFA], 5 to 50 nM; with `CC(C)(O)COc1ccc2c(C(=O)N[C@H]3CC4(C3)C[C@H](Oc3ncccc3C(N)=O)C4)nn(C(C)(C)C(N)=O)c2c1` (stereo partly drawn) [Example 412, 1-(1-amino-2-methyl-1-oxopropan-2-yl)-N-((aR)-6-((3-carbamoylpyridin-2-yl)oxy)spiro[3.3]heptan-2-yl)-6-(2-hydroxy-2-methylpropoxy)-1H-indazole-3-carboxamide, TFA], 5 to 50 nM.

With `NC(=O)c1cccnc1O[C@H]1CC2(C[C@H](NC(=O)c3cnn4cc(OCC5(O)CC(F)(F)C5)ccc34)C2)C1` (stereo partly drawn) [Example 413, N-((aR)-6-((3-carbamoylpyridin-2-yl)oxy)spiro[3.3]heptan-2-yl)-6-((3,3-difluoro-1-hydroxycyclobutyl)methoxy)pyrazolo[1,5-a]pyridine-3-carboxamide, TFA], the IC50 is 5 to 50 nM. `NC(=O)c1cccnc1O[C@H]1CC2(C[C@H](NC(=O)c3cnn4c(C5CC5)c(OCC5(O)CC(F)(F)C5)ccc34)C2)C1` (stereo partly drawn) [Example 415, N-((aR)-6-((3-carbamoylpyridin-2-yl)oxy)spiro[3.3]heptan-2-yl)-7-cyclopropyl-6-((3,3-difluoro-1-hydroxycyclobutyl)methoxy)pyrazolo[1,5-a]pyridine-3-carboxamide, TFA] displayed an IC50 below 5 nM. On the same count and under the same terms, for `CN(C)Cc1nc(C(=O)N[C@H]2CC3(C2)C[C@H](Oc2ncccc2C(N)=O)C3)c2ccc(OCc3ccccc3)cn12` (stereo partly drawn) [Example 416, 6-(benzyloxy)-N-((aR)-6-((3-carbamoylpyridin-2-yl)oxy)spiro[3.3]heptan-2-yl)-3-((dimethylamino)melhyl)imidazo[1,5-a]pyridine-1-carboxamide, TFA] the value was 5 to 50 nM; for `NC(=O)c1cccnc1OC1CC2(CC(NC(=O)c3cnc(-c4ccc(S(=O)(=O)C5CC5)cc4)s3)C2)C1` [Example 417, N-((aR)-6-((3-carbainoylpyridin-2-yl)oxy)spiro[3.3]heptan-2-yl)-2-(4-(cyclopropylsulfonyl)phenyl)thiazole-5-carboxamide, TFA], 5 to 50 nM; for `N#Cc1ccc(-c2ncc(C(=O)NC3CC4(C3)CC(Oc3ncccc3C(N)=O)C4)s2)cc1` [Example 418, N-((aR)-6-((3-carbamoylpyridin-2-yl)oxy)spiro[3.3]heptan-2-yl)-2-(4-cyanophenyl)thiazole-5-carboxamide, TFA], 5 to 50 nM. On the same count and under the same terms, with `CNC(=O)c1ccc(-c2ncc(C(=O)NC3CC4(C3)CC(Oc3ncccc3C(N)=O)C4)s2)cc1F` [Example 419, N-((aR)-6-((3-carbamoylpyridin-2-yl)oxy)spiro[3.3]heptan-2-yl)-2-(3-fluoro-4-(methylcarbamoyl)phenyl)thiazole-5-carboxamide, TFA] the figure was 50 to 250 nM; with `N#Cc1cccc(-c2ncc(C(=O)NC3CC4(C3)CC(Oc3ncccc3C(N)=O)C4)s2)c1` [Example 420, N-((aR)-6-((3-carbamoylpyridin-2-yl)oxy)spiro[3.3]heptan-2-yl)-2-(3-cyanophenyl)thiazole-5-carboxamide, TFA], 5 to 50 nM. As to `NC(=O)c1cccnc1OC1CC2(CC(NC(=O)c3nc(Br)n4ccccc34)C2)C1` [Example 421, 3-bromo-N-((aR)-6-((3-carbamoylpyridin-2-yl)oxy)spiro[3.3]heptan-2-yl)imidazo[1,5-a]pyridine-1-carboxamide], the half-maximal inhibitory concentration (IC50) under setting [1] was in the range of 5 to 50 nM. Regarding `CN1CCN(c2cc(C(=O)NC3CC4(C3)CC(Oc3ncccc3C(N)=O)C4)cc(C(F)(F)F)c2)CC1` [Example 422, 2-(((aR)-6-(3-(4-methylpiperazin-1-yl)-5-(trifluoromethyl)benzamido)spiro[3.3]heptan-2-yl)oxy)nicotinamide], under setting [1], the half-inhibitory concentration (IC50) was in the range of 5 to 50 nM.

Take `CC(C)(C)c1cccc(C(=O)NC2CC3(C2)CC(Oc2ncccc2C(N)=O)C3)c1` [Example 423, 2-(((aR)-6-(3-(tert-butyl)benzamido)spiro[3.3]heptan-2-yl)oxy)nicotinamide]: the IC50 under setting [1] was in the range of 5 to 50 nM.

On to `Cn1cc2c(C(=O)NC3CC4(C3)CC(Oc3ncccc3C(N)=O)C4)cc(Br)cc2n1` [Example 424, 6-bromo-N-((aR)-6-((3-carbamoylpyridin-2-yl)oxy)spiro[3.3]heptan-2-yl)-2-methyl-2H-indazole-4-carboxamide], for which the half-inhibitory concentration (IC50) under setting [1] fell in the range of 5 to 50 nM. Same read-out and setting: with `Cn1ncc2c(C(=O)NC3CC4(C3)CC(Oc3ncccc3C(N)=O)C4)cc(Br)cc21` [Example 425, 6-bromo-N-((aR)-6-((3-carbamoylpyridin-2-yl)oxy)spiro[3.3]heptan-2-yl)-1-methyl-1H-indazole-4-carboxamide] the figure was 5 to 50 nM; with `NC(=O)c1cccnc1OC1CC2(CC(NC(=O)c3cc(C(F)(F)F)cc4c3NC(=O)OC4)C2)C1` [Example 426, N-((aR)-6-((3-carbamoylpyridin-2-yl)oxy)spiro[3.3]heptan-2-yl)-2-oxo-6-(trifluoromethyl)-1,4-dihydro-2H-benzo[d][1,3]oxazine-8-carboxamide], 5 to 50 nM.

Consider `NC(=O)c1cccnc1OC1CC2(CC(NC(=O)c3cc(Br)cc(C(F)(F)F)c3)C2)C1` [Example 427, 2-(((aR)-6-(3-bromo-5-(trifluoromethyl)benzamido)spiro[3.3]heptan-2-yl)oxy)nicotinamide], for which the IC50 under setting [1] fell in the range of 5 to 50 nM.

For the compound `Cn1cc(-c2cc(C(=O)NC3CC4(C3)CC(Oc3ncccc3C(N)=O)C4)cc(C(F)(F)F)c2)cn1` [Example 428, 2-(((aR)-6-(3-(1-methyl-1H-pyrazol-4-yl)-5-(trifluoromethyl)benzamido)spiro[3.3]heptan-2-yl)oxy)nicotinamide], under setting [1], the IC50 was below 5 nM. On to `NC(=O)c1cccnc1OC1CC2(CC(NC(=O)c3nc(C(F)(F)F)n4cc(Br)ccc34)C2)C1` [Example 429, 6-bromo-N-((aR)-6-((3-carbamoylpyridin-2-yl)oxy)spiro[3.3]heptan-2-yl)-3-(trifluoromethyl)imidazo[1,5-a]pyridine-1-carboxamide], for which the concentration for half-maximal inhibition (IC50) under setting [1] is 5 to 50 nM.
